In patent US10316017B2, “COT modulators and methods of use thereof” (Gilead Sciences, Inc., priority 2015, dated 2019):

target: T1, human Cot catalytic domain (30-397 amino acids) (Homo sapiens, UniProt P41279); assay: High Throughput Cot Biochemical Assay (KinEASE TR-FRET); conditions: Cot KinEASE TR-FRET, 400 μM ATP; read-out: IC50 HTRF
T1 construct: Purified recombinant human Cot catalytic domain (30-397 amino acids) was purchased from Cama Biosciences; purchased Cama Biosciences (so in the source)
T1 sequence (P41279 30-397): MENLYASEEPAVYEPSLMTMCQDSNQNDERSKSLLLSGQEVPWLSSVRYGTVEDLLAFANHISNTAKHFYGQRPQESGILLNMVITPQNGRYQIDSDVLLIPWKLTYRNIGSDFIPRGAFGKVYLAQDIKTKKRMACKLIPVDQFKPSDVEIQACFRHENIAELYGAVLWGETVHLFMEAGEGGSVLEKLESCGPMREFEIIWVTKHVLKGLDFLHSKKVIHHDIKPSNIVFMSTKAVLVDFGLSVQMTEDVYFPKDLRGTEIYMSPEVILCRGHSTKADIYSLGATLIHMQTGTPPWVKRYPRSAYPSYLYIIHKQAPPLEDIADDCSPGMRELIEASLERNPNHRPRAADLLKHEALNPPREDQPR
How it was run: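 Recombinant human Cot catalytic domain (aa 30-397), 5 nM, with 1 μM STK3 peptide and 400 μM ATP in MOPS pH 7.0 buffer with MgOAc, DTT, BSA, NP-40, glycerol, 0.1% DMSO. Phosphorylated XL665-peptide detected by Eu-[…] antibody TR-FRET.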

IC50	Compound
46 nM	CCN1CC[C@@H](n2cc(C(Nc3cc(Cl)c4ncc(C#N)c(Nc5ccc(F)c(Cl)c5)c4c3)c3ccc(F)cc3)nn2)C1 (stereo partly drawn) [Example 865, 8-chloro-4-((3-chloro-4-fluorophenyl)amino)-6-(((1-((R)-1-ethylpyrrolidin-3-yl)-1H-1,2,3-triazol-4-yl)(4-fluorophenyl)methyl)amino) quinoline-3-carbonitrile]
46 nM	N#Cc1cnc2c(Cl)cc(NC(c3ccc(Cl)cc3)c3cn([C@@H]4CCNC4)nn3)cc2c1Nc1ccc(F)c(Cl)c1 (stereo partly drawn) [Example 867, 8-chloro-4-((3-chloro-4-fluorophenyl)amino)-6-(((4-chlorophenyl)(1-((R)-pyrrolidin-3-yl)-1H-1,2,3-triazol-4-yl)methyl)amino)quinoline-3-carbonitrile]
119 nM	CCN1CC[C@@H](n2cc(C(Nc3cc(Cl)c4ncc(C#N)c(Nc5ccc(F)c(Cl)c5)c4c3)c3ccc(Cl)cc3)nn2)C1 (stereo partly drawn) [Example 868, 8-chloro-4-((3-chloro-4-fluorophenyl)amino)-6-(((4-chlorophenyl)(1-((R)-1-ethylpyrrolidin-3-yl)-1H-1,2,3-triazol-4-yl)methyl)amino)quinoline-3-carbonitrile]
27 nM	CCN1CC(n2cc(C(Nc3cc(Cl)c4ncc(C#N)c(Nc5ccc(F)c(Cl)c5)c4c3)c3ccc(F)cc3)nn2)C1 (stereo not drawn) [Example 870, 8-chloro-4-((3-chloro-4-fluorophenyl)amino)-6-(((1-(1-ethylazetidin-3-yl)-1H-1,2,3-triazol-4-yl)(4-fluorophenyl)methyl)amino) quinoline-3-carbonitrile]
90 nM	CCN1CC(n2cc(C(Nc3cc(Cl)c4ncc(C#N)c(Nc5ccc(F)c(Cl)c5)c4c3)c3ccc(Cl)cc3)nn2)C1 (stereo not drawn) [Example 871, 8-chloro-4-((3-chloro-4-fluorophenyl)amino)-6-(((4-chlorophenyl)(1-(1-ethylazetidin-3-yl)-1H-1,2,3-triazol-4-yl)methyl)amino)quinoline-3-carbonitrile]
385 nM	N#Cc1cnc2c(Cl)cc(NC(c3ccc(F)cc3)c3cn([C@H]4CCN(C(=O)OCc5ccccc5)C4)nn3)cc2c1Nc1ccc(F)c(Cl)c1 (stereo partly drawn) [Example 876, benzyl (3S)-3-(4-(((8-chloro-4-((3-chloro-4-fluorophenyl)amino)-3-cyanoquinolin-6-yl)amino)(4-fluorophenyl)methyl)-1H-1,2,3-triazol-1-yl)pyrrolidine-1-carboxylate]
47 nM	CCN1CC[C@H](n2cc(C(Nc3cc(Cl)c4ncc(C#N)c(Nc5ccc(F)c(Cl)c5)c4c3)c3ccc(F)cc3)nn2)C1 (stereo partly drawn) [Example 877, 8-chloro-4-((3-chloro-4-fluorophenyl)amino)-6-(((1-((S)-1-ethylpyrrolidin-3-yl)-1H-1,2,3-triazol-4-yl)(4-fluorophenyl)methyl)amino) quinoline-3-carbonitrile]
101 nM	CCN1CC[C@H](n2cc(C(Nc3cc(Cl)c4ncc(C#N)c(Nc5ccc(F)c(Cl)c5)c4c3)c3ccc(Cl)cc3)nn2)C1 (stereo partly drawn) [Example 879, 8-chloro-4-((3-chloro-4-fluorophenyl)amino)-6-(((4-chlorophenyl)(1-((S)-1-ethylpyrrolidin-3-yl)-1H-1,2,3-triazol-4-yl)methyl)amino)quinoline-3-carbonitrile]
68 nM	N#Cc1cnc2c(Cl)cc(NC(c3ccc(Cl)cc3)c3cn([C@H]4CCNC4)nn3)cc2c1Nc1ccc(F)c(Cl)c1 (stereo partly drawn) [Example 880, 8-chloro-4-((3-chloro-4-fluorophenyl)amino)-6-(((4-chlorophenyl)(1-((S)-pyrrolidin-3-yl)-1H-1,2,3-triazol-4-yl)methyl)amino)quinoline-3-carbonitrile]
11 nM	N#Cc1cnc2c(Cl)cc(NC(c3ccc(F)cc3)c3cn(C4CCNCC4)nn3)cc2c1Nc1ccc(F)c(Cl)c1 (stereo not drawn) [Example 886, 8-chloro-4-((3-chloro-4-fluorophenyl)amino)-6-(((4-fluorophenyl)(1-(piperidin-4-yl)-1H-1,2,3-triazol-4-yl)methyl)amino)quinoline-3-carbonitrile]
50 nM	N#Cc1cnc2c(Cl)cc(NC(c3ccccc3)c3c[nH]nn3)cc2c1Nc1ccc(F)c(Cl)c1 (stereo not drawn) [Example 888, 8-chloro-4-((3-chloro-4-fluorophenyl)amino)-6-((phenyl(1H-1,2,3-triazol-4-yl)methyl)amino)quinoline-3-carbonitrile]
30 nM	Cn1cc(C(Nc2cc(Cl)c3ncc(C#N)c(Nc4ccc(F)c(Cl)c4)c3c2)c2ccc(F)c(F)c2)nn1 (stereo not drawn) [Example 891, 8-chloro-4-((3-chloro-4-fluorophenyl)amino)-6-(((3,4-difluorophenyl)(1-methyl-1H-1,2,3-triazol-4-yl)methyl)amino)quinoline-3-carbonitrile]
78 nM	Cn1cc(C(Nc2cc(Cl)c3ncc(C#N)c(Nc4ccc(F)c(Cl)c4)c3c2)c2ccc(Cl)c(Cl)c2)nn1 (stereo not drawn) [Example 892, 8-chloro-4-((3-chloro-4-fluorophenyl)amino)-6-(((3,4-dichlorophenyl)(1-methyl-1H-1,2,3-triazol-4-yl)methyl)amino)quinoline-3-carbonitrile]
39 nM	N#Cc1cnc2c(Cl)cc(NC(c3ccc(F)cc3)c3c[nH]nn3)cc2c1Nc1ccc(F)c(Cl)c1 (stereo not drawn) [Example 893, 8-chloro-4-((3-chloro-4-fluorophenyl)amino)-6-(((4-fluorophenyl)(1H-1,2,3-triazol-4-yl)methyl)amino)quinoline-3-carbonitrile]

The next lines start with the compound.

Compound	IC50
N#Cc1cnc2c(Cl)cc(NC(c3ccc(Cl)cc3)c3cn([C@@H]4CCN(C(=O)OCc5ccccc5)C4)nn3)cc2c1Nc1ccc(F)c(Cl)c1 (stereo partly drawn) [Example 866, benzyl (3R)-3-(4-(((8-chloro-4-((3-chloro-4-fluorophenyl)amino)-3-cyanoquinolin-6-yl)amino)(4-chlorophenyl)methyl)-1H-1,2,3-triazol-1-yl)pyrrolidine-1-carboxylate]	2100 nM
N#Cc1cnc2c(Cl)cc(NC(c3cc(C(F)(F)F)cc(C(F)(F)F)c3)c3cn(C4CCNCC4)nn3)cc2c1Nc1ccc(F)c(Cl)c1 (stereo not drawn) [Example 874, 6-(((3,5-bis(trifluoromethyl)phenyl)(1-(piperidin-4-yl)-1H-1,2,3-triazo1-4-yl)methyl)amino)-8-chloro-4-((3-chloro-4-fluorophenyl)amino)quinoline-3-carbonitrile]	97 nM
N#Cc1cnc2c(Cl)cc(NC(c3cc(F)c(F)c(F)c3)c3cn(C4CCNCC4)nn3)cc2c1Nc1ccc(F)c(Cl)c1 (stereo not drawn) [Example 875, 8-chloro-4-((3-chloro-4-fluorophenyl)amino)-6-(((1-(piperidin-4-yl)-1H-1,2,3-triazol-4-yl)(3,4,5-trifluorophenyl)methyl)amino) quinoline-3-carbonitrile]	66 nM
N#Cc1cnc2c(Cl)cc(NC(c3ccc(Cl)cc3)c3cn([C@H]4CCN(C(=O)OCc5ccccc5)C4)nn3)cc2c1Nc1ccc(F)c(Cl)c1 (stereo partly drawn) [Example 878, benzyl (3S)-3-(4-(((8-chloro-4-((3-chloro-4-fluorophenyl)amino)-3-cyanoquinolin-6-yl)amino)(4-chlorophenyl)methyl)-1H-1,2,3-triazol-1-yl)pyrrolidine-1-carboxylate]	7700 nM
Cc1cc(F)ccc1C(Nc1cc(Cl)c2ncc(C#N)c(Nc3ccc(F)c(Cl)c3)c2c1)c1cn(C2CCN(C(=O)OCc3ccccc3)CC2)nn1 (stereo not drawn) [Example 883, benzyl 4-(4-(((8-chloro-4-((3-chloro-4-fluorophenyl)amino)-3-cyanoquinolin-6-yl)amino)(4-fluoro-2-methylphenyl)methyl)-1H-1,2,3-triazol-1-yl) piperidine-1-carboxylate]	6680 nM
N#Cc1cnc2c(Cl)cc(NC(c3cc(F)c(F)c(F)c3)c3cn(C4CCN(C(=O)OCc5ccccc5)CC4)nn3)cc2c1Nc1ccc(F)c(Cl)c1 (stereo not drawn) [Example 890, benzyl 4-(4-(((8-chloro-4-((3-chloro-4-fluorophenyl)amino)-3-cyanoquinolin-6-yl)amino)(3,4,5-trifluorophenyl)methyl)-1H-1,2,3-triazol-1-yl)piperidine-1-carboxylate]	> 10000 nM
N#Cc1cnc2c(Cl)cc(NC(c3ccc(OC(F)(F)F)cc3)c3cn(C4CCN(C(=O)OCc5ccccc5)CC4)nn3)cc2c1Nc1ccc(F)c(Cl)c1 (stereo not drawn) [Example 896, benzyl 4-(4-(((8-chloro-4-((3-chloro-4-fluorophenyl)amino)-3-cyanoquinolin-6-yl)amino)(4-(trifluoromethoxy)phenyl)methyl)-1H-1,2,3-triazol-1-yl)piperidine-1-carboxylate]	> 10000 nM
N#Cc1cnc2c(Cl)cc(NC(c3ccc(OC(F)(F)F)cc3)c3cn(C4CCNCC4)nn3)cc2c1Nc1ccc(F)c(Cl)c1 (stereo not drawn) [Example 897, 8-chloro-4-((3-chloro-4-fluorophenyl)amino)-6-(((1-(piperidin-4-yl)-1H-1,2,3-triazol-4-yl)(4-(trifluoromethoxy)phenyl)methyl)amino)quinoline-3-carbonitrile]	59 nM
CCN1CCC(n2cc(C(Nc3cc(Cl)c4ncc(C#N)c(Nc5ccc(F)c(Cl)c5)c4c3)c3ccc(OC(F)(F)F)cc3)nn2)CC1 (stereo not drawn) [Example 898, 8-chloro-4-((3-chloro-4-fluorophenyl)amino)-6-(((1-(1-ethylpiperidin-4-yl)-1H-1,2,3-triazol-4-yl)(4-(trifluoromethoxy)phenyl)methyl)amino)quinoline-3-carbonitrile]	40 nM
N#Cc1cnc2c(Cl)cc(NC(c3ccc(F)c(F)c3)c3cn(C4CCN(C(=O)OCc5ccccc5)CC4)nn3)cc2c1Nc1ccc(F)c(Cl)c1 (stereo not drawn) [Example 899, benzyl 4-(4-(((8-chloro-4-((3-chloro-4-fluorophenyl)amino)-3-cyanoquinolin-6-yl)amino)(3,4-difluorophenyl)methyl)-1H-1,2,3-triazol-1-yl)piperidine-1-carboxylate]	> 1000 nM
